{"source": "paper PMC7571068", "about": "“Antiproliferative and Pro-Apoptotic Effect of Uvaol in Human Hepatocarcinoma HepG2 Cells by Affecting G0/G1 Cell Cycle Arrest, ROS Production and AKT/PI3K Signaling Pathway” (Molecules, 2020)", "key": {"[1]": {"tested_on": "MDA-MB-231 (triple negative breast cancer)", "parameters": "method as in PMID 21142067", "details": "MDA-MB-231, 10 and 100 µM; cited from earlier work"}, "WRL68 cells [2]": {"tested_on": "WRL68 cells", "assay": "Muse cell cycle assay (flow cytometry)", "format": "cell-based, human", "details": "WRL68, IC50, 24 h", "protocol": "(§1) A total of 1.5 × 10^5 cells were seeded per well in 24-well plates for each cell line (quadruplicates for three different populations of each cell line). […] Negative control populations were incubated only with the appropriate culture medium. The samples were analyzed in the Muse^TM Cell Analyzer (Merck-Millipore®, Burlington, MA, USA). The method is based on the analysis of the cell cycle through the discrimination of three populations: cells in phase G0/G1, S or G2/M. For this, the Muse^TM Cell Cycle Kit purchased from Millipore (Billerica, MA, USA) was used following the specification of manufacturer."}, "HepG2 cells [3]": {"tested_on": "HepG2 cells", "assay": "Muse cell cycle assay (flow cytometry)", "format": "cell-based, human", "details": "HepG2, IC50, 24 h", "protocol": "as §1"}, "MCF-7 cells": {"tested_on": "MCF-7 cells", "parameters": "method as in PMID 21142067", "details": "MCF-7, 10 and 100 µM; cited from earlier work"}, "WRL68 cells [4]": {"tested_on": "WRL68 cells", "assay": "Morphological changes, optical microscopy", "format": "cell-based, human", "details": "WRL68, IC50, 24 h", "protocol": "(§2) Optical microscopy (Olympus® model CX22LED, Tokyo, Japan) images of the cultures were obtained in the mentioned conditions at 10 and 40 magnifications for the cell line each after 24 h of the treatment’s application."}, "HepG2 cells [5]": {"tested_on": "HepG2 cells", "assay": "Morphological changes, optical microscopy", "format": "cell-based, human", "details": "HepG2, IC50, 24 h", "protocol": "as §2"}, "MCF-7 line": {"tested_on": "MCF-7 line", "parameters": "method as in PMID 21142067", "details": "MCF-7, 44.27 μg/mL, same phase = G0/G1; cited from earlier work"}, "WRL68 cells [6]": {"tested_on": "WRL68 cells", "assay": "Muse Annexin V & Dead Cell apoptosis assay", "format": "cell-based, human", "details": "WRL68, uvaol IC50, 24 h", "protocol": "(§3) A total of 1.5 × 10^5 cells were seeded per well in 24-well plates for each cell line (quadruplicates for three different populations of each cell line). […] Negative control populations were incubated only with the appropriate culture medium. The samples were analyzed in the Muse^TM Cell Analyzer (Merck-Millipore®, Burlington, MA, USA). Phosphatidylserine (PS) is a phospholipid that is usually found in the inner half of the cytoplasmic membrane, but is outsourced when loss of integrity occurs in the apoptosis process. The method is based on the recognition and binding to the PS exposed by annexin V protein, labeled with a fluorescent substance to detect the interaction and quantify it. We used the Muse^TM Annexin V & Dead Cell kit purchased from Millipore (Billerica, MA, USA), which provides the percentage of viable cells, apoptotic and affected by necrosis."}, "HepG2 cells [7]": {"tested_on": "HepG2 cells", "assay": "Muse Annexin V & Dead Cell apoptosis assay", "format": "cell-based, human", "details": "HepG2, uvaol IC50, 24 h", "protocol": "as §3"}, "WRL68 cells [8]": {"tested_on": "WRL68 cells", "assay": "Muse Oxidative Stress kit, ROS production", "format": "cell-based, human", "details": "WRL68, IC50, 24 h", "protocol": "(§4) A total of 1.5 × 10^5 cells were seeded per well in 24-well plates for each cell line (quadruplicates for three different populations of each cell line). […] Negative control populations were incubated only with the appropriate culture medium. The samples were analyzed in the Muse^TM Cell Analyzer (Merck-Millipore®, Burlington, MA, USA). The method is based on the use of dihydroetide (DHE), a reagent capable of crossing the cell membrane and interacting with superoxide anions, a type of ROS. In this process, DHE oxidizes and forms the DNA intercalating agent ethidium bromide, detectable by its fluorescence emission. […] The Muse^TM Oxidative Stress kit purchased from Millipore (Billerica, MA, USA) was used for this purpose."}, "HepG2 cells [9]": {"tested_on": "HepG2 cells", "assay": "Muse Oxidative Stress kit, ROS production", "format": "cell-based, human", "details": "HepG2, IC50, 24 h", "protocol": "as §4"}, "[10]": {"tested_on": "AKT/PI3K and ERK1/2/MAPK signaling pathways in WRL68 cells", "assay": "Muse PI3K/MAPK Dual Pathway activation assay", "format": "cell-based, human", "details": "WRL68, IC50, 24 h", "protocol": "(§5) The Muse® PI3K/MAPK Dual Pathway activation kit purchased from Millipore (Billerica, MA, USA) was employed to examine both the PI3K and MAPK signaling pathways simultaneously using the Muse Cell Analyzer (Merck-Millipore®, Burlington, MA, USA). The protocol followed was performed as the manufacturer instructions. The samples (quadruplicates for three different populations of each cell line) were analyzed in the Muse^TM Cell Analyzer."}, "[11]": {"tested_on": "AKT/PI3K and ERK1/2/MAPK signaling pathways in HepG2 cells", "assay": "Muse PI3K/MAPK Dual Pathway activation assay", "format": "cell-based, human", "details": "HepG2, IC50, 24 h", "protocol": "as §5"}, "lymphoma cells (U937)": {"tested_on": "lymphoma cells (U937)", "parameters": "method as in PMID 21142067", "details": "U937, 10 and 100 µM; cited from earlier work"}, "WRL68 cells [12]": {"tested_on": "WRL68 cells", "assay": "MTT cytotoxicity assay", "format": "cell-based", "details": "Homo sapiens, mean ± SEM (n = 9)", "protocol": "MTT assay was performed as described by Pérez-Jiménez et al.. Briefly, samples containing 200 µL cell suspension (1 × 10^4 cells/well) were cultured in 96 well plates, in triplicate of three populations of the both cell lines. Subsequent to adherence of the cells within 12 h of incubation, Uvaol was added to the wells at a concentration between 0–140 μg/mL and maintained during 24, 48 and 72 h. MTT was dissolved in the medium and added to the wells at a final concentration of 0.5 mg/mL. Following 2 h of incubation, the generated formazan was dissolved in DMSO. Absorbance was measured at 570 nm in a multiplate reader (Bio-tek®, Winooski, VT, USA). The concentrations that caused 20%, 50% and 80% of inhibition of cell viability (IC20, IC50 and IC80) were calculated following the formula: % […] = (A0 − AT)/A0·100, where A0 is the control absorbance (100% of cell viability) and AT is de absorbance of the incubated cells with the different concentrations of uvaol. OriginPro 8 (OriginLab Corporation, Northampton, MA, USA) was used to performance a dose-response analysis by the following formula: y=A1+ A2− A1/1+10^(Log x0−x)p\nIn which Logx0 is the center of the curve, p the slope, A1 the lower asymptote and A2 the upper asymptote in the adjustment model described."}}, "data": [{"smiles": "C[C@H]1[C@H](C)CC[C@]2(CO)CC[C@]3(C)C(=CC[C@@H]4[C@@]5(C)CC[C@H](O)C(C)(C)[C@@H]5CC[C@]43C)[C@H]12", "note": "[uvaol, urs-12-ene-3,28-diol]", "values": [{"measurement": "induction of apoptosis", "setting": "[1]", "value": "did not show this effect"}, {"measurement": "change in percentage of cells in G0/G1 phase vs control", "setting": "WRL68 cells [2]", "value": "significant decrease"}, {"measurement": "change in percentage of cells in G2/M phase vs control", "setting": "WRL68 cells [2]", "value": "increase"}, {"measurement": "change in percentage of cells in S phase vs control", "setting": "WRL68 cells [2]", "value": "significant decrease"}, {"measurement": "change in percentage of cells in G0/G1 phase vs control", "setting": "HepG2 cells [3]", "value": "statistically significant increase"}, {"measurement": "change in percentage of cells in G2/M phase vs control", "setting": "HepG2 cells [3]", "value": "equally significant reduction"}, {"measurement": "change in percentage of cells in S phase vs control", "setting": "HepG2 cells [3]", "value": "No differences were found"}, {"measurement": "induction of apoptosis", "setting": "MCF-7 cells", "value": "did not show this effect"}, {"measurement": "cell morphology change", "setting": "WRL68 cells [4]", "value": "become rounded and have cytoplasmic projections"}, {"measurement": "cell morphology change", "setting": "HepG2 cells [5]", "value": "slightly more rounded, with very sharp projections and a loss of adhesion to the support"}, {"measurement": "cell cycle arrest", "setting": "MCF-7 line", "value": "arrest in the same phase of the cycle"}, {"measurement": "change in number of apoptotic and necrotic cells vs control", "setting": "WRL68 cells [6]", "value": "equally significant increase"}, {"measurement": "change in number of viable cells vs control", "setting": "WRL68 cells [6]", "value": "significant decrease"}, {"measurement": "change in percentage of viable cells vs control", "setting": "HepG2 cells [7]", "value": "significant reduction"}, {"measurement": "change in proportion of apoptotic cells vs control", "setting": "HepG2 cells [7]", "value": "increasing the proportion of apoptotic cells"}, {"measurement": "change in ROS levels vs control", "setting": "WRL68 cells [8]", "value": "without significant differences"}, {"measurement": "change in percentage of cells expressing ROS vs control", "setting": "HepG2 cells [9]", "value": "significant decrease"}, {"measurement": "change in percentage of cells in which only ERK1/2/MAPK was activated", "setting": "[10]", "value": "not altered"}, {"measurement": "decrease in cells that only activated the AKT/PI3K pathway", "setting": "[10]", "value": 22, "unit": "%"}, {"measurement": "increase in cells that activated the dual pathway (MAPK and PI3K)", "setting": "[10]", "value": 25, "unit": "%"}, {"measurement": "net balance: activation of the ERK1/2/MAPK signaling pathway", "setting": "[10]", "value": 25, "unit": "%"}, {"measurement": "net balance: modification of the PI3K pathway", "setting": "[10]", "value": "no modification"}, {"measurement": "change in percentage of cells that only activated ERK1/2/MAPK", "setting": "[11]", "value": "not altered"}, {"measurement": "decrease in cells that only activated AKT/PI3K", "setting": "[11]", "value": 25, "unit": "%"}, {"measurement": "increase in cells with activated dual pathway (MAPK and PI3K)", "setting": "[11]", "value": 9, "unit": "%"}, {"measurement": "net balance: increase of ERK1/2/MAPK signaling pathway", "setting": "[11]", "value": 9, "unit": "%"}, {"measurement": "net balance: inhibition of AKT/PI3K signaling pathway", "setting": "[11]", "value": 16, "unit": "%"}, {"measurement": "induction of apoptosis", "setting": "lymphoma cells (U937)", "value": "induced apoptosis"}, {"measurement": "IC20", "setting": "WRL68 cells [12]; WRL68, 24 h exposure", "value": "27.6 ± 2.9", "unit": "µg/mL"}, {"measurement": "IC50", "setting": "WRL68 cells [12]; WRL68, 24 h exposure", "value": 54.3, "unit": "µg/mL"}, {"measurement": "IC20", "setting": "WRL68 cells [12]; WRL68, 48 h exposure", "value": "13.3 ± 0.8", "unit": "µg/mL"}, {"measurement": "IC50", "setting": "WRL68 cells [12]; WRL68, 48 h exposure", "value": "35.9 ± 0.7", "unit": "µg/mL"}, {"measurement": "IC80", "setting": "WRL68 cells [12]; WRL68, 48 h exposure", "value": "79.8 ± 0.6", "unit": "µg/mL"}, {"measurement": "IC20", "setting": "WRL68 cells [12]; WRL68, 72 h exposure", "value": "6.8 ± 0.6", "unit": "µg/mL"}, {"measurement": "IC50", "setting": "WRL68 cells [12]; WRL68, 72 h exposure", "value": "19.5 ± 1.1", "unit": "µg/mL"}, {"measurement": "IC80", "setting": "WRL68 cells [12]; WRL68, 72 h exposure", "value": "47.2 ± 4.3", "unit": "µg/mL"}]}]}
